Converted amounts (≈) assume the structure as drawn.
Experiments:
[1] = system: Pseudomonas aeruginosa CCM 3955; design: method as in PMID 26084645; details: previously published positional isomer; cited from earlier work
[2] = system: Mycobacterium tuberculosis H37Rv; test: Antimycobacterial microdilution broth MIC (Alamar Blue); format: cell-based
[3] = system: Mycobacterium smegmatis DSM 43465; test: Antimycobacterial microdilution broth panel MIC (resazurin); format: cell-based; details: for MIC: Mycolicibacterium smegmatis
[4] = system: Ataxia Telangiectasia and Rad3 Related (ATR) protein kinase; design: method as in doi:10.1007/s00044-013-0665-6; details: cited from earlier work
[5] = Lipophilicity by reverse phase HPLC (log k); details: RP-HPLC C18, MeOH 70% / H2O 30%, 30 °C
Protocol: The mobile phase consisted of MeOH (HPLC grade, 70%) and H2O (HPLC-Milli-Q Grade, 30%). The flow rate was 1.0 mL/min, samples were injected in a volume of 20 µL, and the column temperature was 30 °C. Detection and monitoring wavelength were 210 nm and 270 nm, respectively. Retention times (Rt) were measured in minutes. The dead time of the system (Dt) was determined as the retention time of the KI methanolic solution. Capacity factors k for individual compounds were calculated according to the formula k = (Rt – Dt)/Dt. Capacity factor k was converted to log scale and (log k) and used as a measure of lipophilicity.

[6] = Solubility in the cytotoxicity testing medium; details: cytotoxicity assay medium; highest tested concentration 50 µM
[7] = In vitro cytotoxicity, CellTiter 96 Aqueous One; details: human
HepG2 cell line = test: In vitro cytotoxicity, CellTiter 96 Aqueous One
[8] = system: M. kansasii CNCTC My 235/80; test: Antimycobacterial microdilution broth MIC (Alamar Blue); format: cell-based, Mycobacterium kansasii
[9] = system: M. avium ssp. avium CNCTC My 80/72; test: as above; format: cell-based, Mycobacterium avium
[10] = system: Mycobacterium aurum DSM 43999; test: Antimycobacterial microdilution broth panel MIC (resazurin); format: cell-based; details: Mycolicibacterium aurum, DSM43999
[11] = system: Candida albicans CCM 8320; test: Antifungal microdilution broth MIC; details: CCM8320, 48 h, read-out: MIC Candida albicans (standards)
C. krusei CCM 8271 = test: Antifungal microdilution broth MIC; details: Pichia kudriavzevii, CCM8271, 48 h, read-out: MIC C. krusei (standards)
C. parapsilosis CCM 8260 = test: Antifungal microdilution broth MIC; details: Lodderomyces parapsilosis, CCM8260, 48 h, read-out: MIC C. parapsilosis (standards)
C. tropicalis CCM 8264 = test: Antifungal microdilution broth MIC; details: Candida tropicalis, CCM8264, 48 h, read-out: MIC C. tropicalis (standards)
[12] = system: Aspergillus flavus CCM 8363; test: Antifungal microdilution broth MIC; details: CCM8363, 48 h, read-out: MIC Aspergillus flavus (standards)
[13] = system: Lichtheimia corymbifera CCM 8077; test: Antifungal microdilution broth MIC; details: CCM8077, 48 h, read-out: MIC Lichtheimia corymbifera (standards)
[14] = system: Trichophyton interdigitale CCM 8377; test: Antifungal microdilution broth MIC; details: Trichophyton interdigitale, CCM8377, 72 h, read-out: MIC Trichophyton interdigitale (standards)
[15] = system: Aspergillus fumigatus ATCC 204305; test: Antifungal microdilution broth MIC; details: ATCC204305, 48 h, read-out: MIC Aspergillus fumigatus (standards)
[16] = Mycobacterium tuberculosis, H37RV, M. tuberculosis H37Rv, value in parentheses
[17] = Mycobacterium tuberculosis, H37RV, pH 6.6, M. tuberculosis H37Rv, Middlebrook 7H9 pH 6.6

Nc1cnc(C(=O)Nc2ccc(C(F)(F)F)cc2)cn1 [5-amino-N-(4-(trifluoromethyl)phenyl)pyrazine-2-carboxamide]
MIC P. aeruginosa [1]: 250 µM (≈ 70.6 µg/mL)

Nc1nccnc1C(=O)Nc1ccccc1 [Compound 13, 3-Amino-N-phenylpyrazine-2-carboxamide]
MIC [2, 16]: > 467 µM
MIC [2, 17]: > 100 µg/mL
MIC ([3]; DSM43465): > 500 µg/mL
MIC ([3]; DSM43465, value in parentheses): > 2330 µM
inhibitory effects on ATR protein kinase [4]: inhibitory effects
log k [5]: 0.189

COc1ccc(NC(=O)c2nccnc2N)c(OC)c1 [Compound 17, 3-Amino-N-(2,4-dimethoxyphenyl)pyrazine-2-carboxamide]
MIC ([2]; M. tuberculosis H37Rv, value in parentheses): 45.6 µM
MIC [2, 16]: 46 µM
MIC [2, 17]: 12.5 µg/mL
MIC ([3]; DSM43465): > 500 µg/mL
MIC ([3]; DSM43465, value in parentheses): > 1820 µM
log k [5]: 0.37
solubility in the testing medium [6]: decreased solubility
IC50 at 24 h [7]: > 50 µM
cytotoxicity against HepG2 (HepG2 cell line): nontoxic

NNC(=O)c1ccncc1 [INH, isoniazid, reference compound]
MIC [2, 17]: 0.1 to 0.2 µg/mL
MIC M. kansasii [8]: 3.13 to 12.5 µg/mL
MIC M. avium [9]: 6.25 to 12.5 µg/mL
MIC M. smegmatis [3]: 7.81 to 15.62 µg/mL
MIC ([3]; DSM43465): 7.81 to 15.6 µg/mL
MIC [10]: 1.95 to 3.91 µg/mL (≈ 14.2 to 28.5 µM)

C[C@@H](c1ncncc1F)[C@](O)(Cn1cncn1)c1ccc(F)cc1F [voriconazole]
MIC [11]: > 16 µg/mL
MIC (C. krusei CCM 8271): 0.5 µg/mL (≈ 1.43 µM)
MIC (C. parapsilosis CCM 8260): 8 µg/mL (≈ 22.9 µM)
MIC (C. tropicalis CCM 8264): > 16 µg/mL
MIC [12]: > 16 µg/mL
MIC [13]: > 16 µg/mL
MIC [14]: > 16 µg/mL
MIC [15]: 1 µg/mL (≈ 2.86 µM)

From article PMC6479349, “Derivatives of 3-Aminopyrazine-2-carboxamides: Synthesis, Antimicrobial Evaluation, and in Vitro Cytotoxicity” (Molecules, 2019)
